Test results: patent US20230279016A1, “Tetrahydropyrazolopyrimidines and Related Analogs for Inhibiting YAP/TAZ-TEAD” (THE KATHOLIEKE UNIVERSITEIT LEUVEN, priority 2021, published 2023)

What was measured:
Assay type in all cases: cell-based
[1] = system: NCI-H2052 mesothelioma cell line; assay: Mesothelioma cell line proliferation assay, NCI-H2052; conditions: Homo sapiens, NCI-H2052, 144 h, NCI-H2052, 6 days with compound, cell viability by ATPlite
Outline: (§1)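 Cells were seeded at 1500 cells/well in RPMI 1640 with 10% FBS, left overnight, then exposed to DMSO-dissolved compounds in dose-response for 6 days at 37 °C, 5% CO2. Viability was measured by ATPlite luminescence, converted to percent inhibition, and used to derive EC50.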

[2] = system: YAP/TAZ-TEAD transcription; assay: Reporter gene assay for measuring the inhibition of YAP/TAZ-TEAD transcription (TEAD-responsive element luciferase reporter in Hek293T cells); conditions: Homo sapiens, HEK-293T, 24 h, Hek293T cells transiently transfected with TEAD-responsive element luciferase reporter, 24 hours incubation
Outline: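 Hek293T cells transiently transfected with TEAD-responsive luciferase reporter, exposed to compound for 24 h at 37° C/5% CO2, then read by luminescence. Percent inhibition normalized to vehicle (0%) and positive control inhibitor (100%); EC50 reported as activity ranges.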

[3] = system: NCI-H226 mesothelioma cell line; assay: Mesothelioma cell line proliferation assay, NCI-H226; conditions: Homo sapiens, NCI-H226, 144 h, NCI-H226, 6 days with compound, cell viability by ATPlite
Outline: as §1

| Structure (SMILES) | EC50 [1] | EC50 [2] | EC50 [3] |
| --- | --- | --- | --- |
| C=C(F)C(=O)NCC1CN(c2ccc(C(F)(F)F)cc2)c2ccnn2C1 (stereo not drawn) [Cpd. No. 039, 2-fluoro-N-((4-(4-(trifluoromethyl)phenyl)-4,5,6,7-tetrahydropyrazolo[1,5-a]pyrimidin-6-yl)methyl)acrylamide] | < 1 µM | < 1 µM | < 1 µM |
| C=C(C)C(=O)NCC1CN(c2ccc(C(F)(F)F)cc2)c2ccnn2C1 (stereo not drawn) [Cpd. No. 040, N-((4-(4-(trifluoromethyl)phenyl)-4,5,6,7-tetrahydropyrazolo[1,5-a]pyrimidin-6-yl)methyl)methacrylamide] | > 10 µM | < 1 µM | < 1 µM |
| C=CC(=O)NCC1CN(Cc2ccc(C(F)(F)F)cc2)c2ccnn2C1 (stereo not drawn) [Cpd. No. 048, N-((4-(4-(trifluoro-methyl)benzyl)-4,5,6,7-tetrahydropyrazolo[1,5-a]pyrimidin-6-yl)methyl)acrylamide] | < 1 µM | < 1 µM | < 1 µM |
| C=CC(=O)NCC1CN(Cc2cccc(C(F)(F)F)c2)c2ccnn2C1 (stereo not drawn) [Cpd. No. 052, N-((4-(3-(trifluoro-methyl)benzyl)-4,5,6,7-tetrahydropyrazolo[1,5-a]pyrimidin-6-yl)methyl)acrylamide] | < 1 µM | < 1 µM | < 1 µM |
| C=CC(=O)NCC1CN(c2ccc(C(F)(F)F)cc2)c2c(Br)cnn2C1 (stereo not drawn) [Cpd. No. 058, N-((3-bromo-4-(4-(trifluoromethyl)phenyl)-4,5,6,7-tetrahydropyrazolo[1,5-a]pyrimidin-6-yl)-methyl)acrylamide] | 1 to 10 µM | < 1 µM | < 1 µM |
| C=CC(=O)NCC1CNc2c(CC#Cc3ccccc3)cnn2C1 (stereo not drawn) [Cpd. No. 059, N-((3-(3-phenylprop-2-yn-1-yl)-4,5,6,7-tetrahydropyrazolo[1,5-a]pyrimidin-6-yl)-methyl)acrylamide] | > 10 µM | < 1 µM | > 10 µM |
| C=CC(=O)NC1CN(c2ccc(C(F)(F)F)cc2)c2ccnn2C1 (stereo not drawn) [Cpd. No. 061, N-(4-(4-(trifluoromethyl)phenyl)-4,5,6,7-tetrahydropyrazolo[1,5-a]pyrimidin-6-yl)acrylamide] | < 1 µM | < 1 µM | < 1 µM |
| C=CC(=O)NC1CN(c2ccc(OC(F)(F)F)cc2)c2ccnn2C1 (stereo not drawn) [Cpd. No. 063, N-(4-(4-(trifluoromethoxy)phenyl)-4,5,6,7-tetrahydropyrazolo[1,5-a]pyrimidin-6-yl)acrylamide] | < 1 µM | < 1 µM | < 1 µM |
| C=CC(=O)NCC1Cc2c(cnn2C)N(c2ccc(C(F)(F)F)cc2)C1 (stereo not drawn) [Cpd. No. 068, N-((1-methyl-4-(4-(trifluoromethyl)phenyl)-4,5,6,7-tetrahydro-1H-pyrazolo[4,3-b]pyridin-6-yl)methyl)acrylamide] | < 1 µM | < 1 µM | < 1 µM |

Continued, values first:

| EC50 [1] | EC50 [2] | EC50 [3] | Structure (SMILES) |
| --- | --- | --- | --- |
| < 1 µM | < 1 µM | < 1 µM | C=CC(=O)NCC1Cc2nn(C)cc2N(c2ccc(C(F)(F)F)cc2)C1 (stereo not drawn) [Cpd. No. 069, N-((2-methyl-4-(4-(trifluoromethyl)phenyl)-4,5,6,7-tetrahydro-2H-pyrazolo[4,3-b]pyridin-6-yl)methyl)acrylamide] |
| < 1 µM | < 1 µM | < 1 µM | C=CC(=O)NCC1Cc2c(cnn2C)N(c2ccc(OC(F)(F)F)cc2)C1 (stereo not drawn) [Cpd. No. 070, N-((1-methyl-4-(4-(trifluoromethoxy)phenyl)-4,5,6,7-tetrahydro-1H-pyrazolo[4,3-b]pyridin-6-yl)methyl)acrylamide] |
| < 1 µM | < 1 µM | < 1 µM | C=CC(=O)NCC1Cc2nn(C)cc2N(c2ccc(OC(F)(F)F)cc2)C1 (stereo not drawn) [Cpd. No. 071, N-((2-methyl-4-(4-(trifluoromethoxy)phenyl)-4,5,6,7-tetrahydro-2H-pyrazolo[4,3-b]pyridin-6-yl)methyl)acrylamide] |
| < 1 µM | < 1 µM | < 1 µM | C=CC(=O)NCC1Cc2c(cnn2Cc2cccc(C(N)=O)c2)N(c2ccc(C(F)(F)F)cc2)C1 (stereo not drawn) [Cpd. No. 080, 3-((6-(acrylamido-methyl)-4-(4-(trifluoromethyl)phenyl)-4,5,6,7-tetrahydro-1H-pyrazolo[4,3-b]pyridin-1-yl)methyl)benzamide] |
| < 1 µM | < 1 µM | < 1 µM | C=CC(=O)NCC1Cc2nn(Cc3cccc(C(N)=O)c3)cc2N(c2ccc(C(F)(F)F)cc2)C1 (stereo not drawn) [Cpd. No. 081, 3-((6-(acrylamidomethyl)-4-(4-(trifluoromethyl)-phenyl)-4,5,6,7-tetrahydro-2H-pyrazolo[4,3-b]pyridin-2-yl)methyl)benzamide] |
| > 10 µM | < 1 µM | > 10 µM | O=C1NCCC12CN(c1ccc(C(F)(F)F)cc1)c1ccnn1C2 (stereo not drawn) [Cpd. No. 087, 4-(4-(trifluoromethyl)phenyl)-4,5-dihydro-7H-spiro[pyrazolo[1,5-a]pyrimidine-6,3′-pyrrolidin]-2′-one] |
| < 1 µM | < 1 µM | < 1 µM | C=CC(=O)N1CCC2(C1)CN(c1ccc(C(F)(F)F)cc1)c1ccnn1C2 (stereo not drawn) [Cpd. No. 088, 1-(4-(4-(trifluoromethyl)phenyl)-4,5-dihydro-7H-spiro[pyrazolo[1,5-a]pyrimidine-6,3′-pyrrolidin]-1′-yl)prop-2-en-1-one] |
